Reference: patent publication US20220349887A1, “Compositions and Methods for Multiplex Detection of Microorganisms Using Peptide-Tagged Recombinant Infectious Agents” (priority 2021, published 2022)

What was measured:
Test in all cases: Antibiotic susceptibility testing in human blood: cefoxitin enrichment, then MP115.NL/SAPJV1.NL phage infection, luminescence
Type in all cases: cell-based
[1] = system: methicillin-susceptible Staphylococcus aureus (MSSA) ATCC 12600; details: 130 CFU/Well
Procedure: (§1) Methicillin-resistant Staphylococcus aureus (MRSA) strains (ATCC BAA-1720, CDC AR0480) and the methicillin-susceptible Staphylococcus aureus (MSSA) strain (ATCC 12600) were grown to log phase (OD600 ranged from 0.16 to 0.4) in tryptic soy broth (TSB). Cultures were diluted in TSB to obtain the desired burden, which was confirmed by plating on TSB agar for colony forming units (CFU). 50 μL of each dilution was added to test strips. When indicated, some strips contained bound anti-NANOLUC® antibody on medium-binding plates for capture. 85 μL, of either TSB or human blood diluted with TSB and sodium polyanethole sulfonate (SPS) was added. Human blood was collected from a single donor using sodium heparin as an anti-coagulant. Each well then received 15 μL of either TSB or 22 μg/mL cefoxitin (FOX) in TSB. The final concentration of each component in the well (150 μL volume) was 25% human blood, 0.0375% SPS, and 2.2 μg/mL FOX. Test strips were then sealed with cover film and incubated at 37° C. for two hours. After this selective enrichment, 20 μL of phage working stock was added to wells containing the TSB matrix. Phage working stock contained 8×10^7 plaque forming units per mL (pfu/mL) of MP115.NL and 6.9×10^8 pfu/mL of SAPJV1.NL. For wells containing blood matrix, 0.5 mg of recombinant Staphylococcal protein A (pro-356, Prospec, Ness-Ziona, Israel) per well was included within the 20 μL of phage working stock. Assay strips were once again sealed with cover film and incubated at 37° C. for three hours. Following infection, anti-NanoLuc capture and controls strips were washed three times with 300 μL PBS-T (10 mM sodium phosphate, 150 mM NaCl, 0.05% Tween 20, pH 7.4). Washes were conducted using an automatic plate washer (AccuWash, Thermo Fisher Scientific, Waltham, Mass., USA). 100 μL of NanoGlo buffer (Promega, Madison, Wisc., USA) containing 1 μL of NanoGlo substrate (Promega, Madison, Wisc., USA) was added to each well. “No wash+No Capture” strips were not washed and instead received 65 μL of a master mix containing 50 μL NanoGlo Buffer, 15 μL TSB, and 1 μL NanoGlo substrate. Following a 3 minute wait period, the signal output of each sample as relative light units (RLU) was determined using a GloMax Navigator (Promega, Madison, Wisc., USA). Signal over background (SB) was calculated by dividing the RLU from each sample from the RLU observed in the media control for that test matrix (Table 2).

[2] = system: Methicillin-resistant Staphylococcus aureus (MRSA) CDC AR0480; details: 110 CFU/Well
Procedure: as §1

[3] = system: Methicillin-resistant Staphylococcus aureus (MRSA) ATCC BAA-1720; details: 41 CFU/Well
Procedure: as §1

[4] = 5% BSA Blocked Strips, Blood + FOX 2.2 μg/mL
[5] = 5% BSA Blocked Strips, TSB + FOX 2.2 μg/mL
[6] = Anti-NanoLuc Capture Strips, Blood + FOX 2.2 μg/mL
[7] = Anti-NanoLuc Capture Strips, TSB + FOX 2.2 μg/mL
[8] = No Capture + No Wash, Blood + FOX 2.2 μg/mL
[9] = No Capture + No Wash, TSB + FOX 2.2 μg/mL

Compound `CO[C@@]1(NC(=O)Cc2cccs2)C(=O)N2C(C(=O)O)=C(COC(N)=O)CS[C@@H]21` [FOX, cefoxitin] has an RLU [1, 4] of 10 RLU, a S/B [1, 4] of 1 and an RLU [1, 5] of 6 RLU. The S/B [1, 5] was 1, the RLU [1, 6] was 18 RLU and the S/B [1, 6] was 1. It also gave an RLU [1, 7] of 80 RLU, a S/B [1, 7] of 1 and an RLU [1, 8] of 103 RLU. The S/B [1, 8] was 2, the RLU [1, 9] was 988 RLU and the S/B [1, 9] was 1. The RLU [2, 4] was 3 RLU, the S/B [2, 4] was 0 and the RLU [2, 5] was 53 RLU. It also gave a S/B [2, 5] of 7, an RLU [2, 6] of 6927 RLU and a S/B [2, 6] of 433. It also gave an RLU [2, 7] of 96650 RLU, a S/B [2, 7] of 1255 and an RLU [2, 8] of 432 RLU. For the same compound, the S/B [2, 8] was 8, the RLU [2, 9] was 127000 RLU and the S/B [2, 9] was 166. The RLU [3, 4] was 12 RLU, the S/B [3, 4] was 2 and the RLU [3, 5] was 20 RLU. For the same compound, the S/B [3, 5] was 3, the RLU [3, 6] was 63960 RLU and the S/B [3, 6] was 3998. The RLU [3, 7] was 79180 RLU, the S/B [3, 7] was 1028 and the RLU [3, 8] was 9035 RLU. The S/B [3, 8] was 177, the RLU [3, 9] was 342000 RLU and the S/B [3, 9] was 447.
